{"source": "patent US20060270655A1", "about": "“Combination therapy for treating obesity or maintaining weight loss” (priority 2005, published 2006)", "experiment": "Food intake (12 hour spontaneous food intake, rats on high fat diet)", "format": "in vivo", "conditions": "male Sprague-Dawley rats", "protocol": "The following functional assay was used to determine the effect of an intestinal-acting MTPi, a CB-1 antagonist, and the combination of an intestinal-acting MTPi and a CB-1 antagonist on food intake. The doses of the CB-1 antagonist used in the experiments were 10 mg/kg and 30 mg/kg. The doses of the intestinal-acting MTPi used in the experiments were 3 mg/kg and 10 mg/kg. The different dosages for each active were tested alone and in various combinations with each other as compared to a control (vehicle).\nMale Sprague-Dawley rats (275-325 grams) were placed on a high fat diet (Research Diets, 45% kcal from fat). Animals were acclimated to an automated food intake assessment system overnight. Food weight data was collected by computer acquisition. Immediately prior to the start of the dark cycle on the first day, animals were given a PO (i.e., orally by mouth) dose of a gMTP inhibitor (Dirlotapide) or vehicle (self-emulsifying drug delivery system (SEDDS) formulation containing 20% Miglyol 812, 30% Triacetin, 20% Tween 80, and 30% Capmul MCM). On the second day, rats (n=5-10/group) were given a PO dose of a CB-1 antagonist (Compound A) or 0.5% methylcellulose 20 minutes prior to a second dose of Dirlotapide or vehicle. Food Intake was monitored until the following day. Data for each treatment group was compared by ANOVA (analysis of variance)."}
{"compound": "CCNC1(C(N)=O)CCN(c2ncnc3c2nc(-c2ccccc2Cl)n3-c2ccc(Cl)cc2)CC1", "note": "[Compound A, 1-[9-(4-chloro-phenyl)-8-(2-chloro-phenyl)-9H-purin-6-yl]4-ethylamino-piperidine-4-carboxylic acid amide]", "values": [{"measurement": "12 hour Spontaneous Food Intake", "setting": "10 mg/kg Compound A PO alone (plus SEDDS vehicle)", "result": "16.3 ± 1.0", "unit": "grams"}, {"measurement": "12 hour Spontaneous Food Intake", "setting": "30 mg/kg Compound A PO alone (plus SEDDS vehicle)", "result": "12.6 ± 1.4", "unit": "grams"}]}
{"compound": "CN(Cc1ccccc1)C(=O)[C@@H](NC(=O)c1cc2cc(NC(=O)c3ccccc3-c3ccc(C(F)(F)F)cc3)ccc2n1C)c1ccccc1", "note": "[Dirlotapide, (S)-N-{2-[benzyl(methyl)amino]-2-oxo-1-phenylethyl}-1-methyl-5-[4′-(trifluoromethyl)[1,1′-biphenyl]-2-carboxamido]-1H-indole-2 carboxamide]", "values": [{"measurement": "12 hour Spontaneous Food Intake", "setting": "3 mg/kg Dirlotapide PO alone (two daily doses, plus 0.5% methylcellulose)", "result": "14.6 ± 0.8", "unit": "grams"}, {"measurement": "12 hour Spontaneous Food Intake", "setting": "10 mg/kg Dirlotapide PO alone (two daily doses, plus 0.5% methylcellulose)", "result": "11.3 ± 0.7", "unit": "grams"}]}
